According to patent US9133219B2, “Bicyclic antibiotics” (Basilea Pharmaceutica AG, priority 2009, dated 2015):
In brackets after ≈: the same amount, converted by molar mass.

How the values were obtained:
Assay type in all cases: cell-based
[1] = system: Staphylococcus aureus and/or Staphylococcus epidermidis and/or Streptococcus pneumoniae; experiment: MIC summary statement, staphylococci and pneumococci; settings: generally, for Staphylococcus aureus and/or Staphylococcus epidermidis and/or Streptococcus pneumoniae
Protocol: (§1) Anti-Microbial Activity Assay.
(§2) The antibacterial activity of compounds is determined by the minimal inhibitory concentration (MIC) method. MICs for all bacteria except pneumococci and Haemophilus influenzae are obtained by broth microdilution with cation-adjusted Mueller-Hinton broth (CAMHB; BBL), according to CLSI guidelines (National Committee for Clinical Laboratory Standards. 2003. Methods for dilution antimicrobial susceptibility tests for bacteria that grow aerobically, 5th ed.; approved standard M7-A6. National Committee for Clinical Laboratory Standards, Wayne, Pa.), with the following modifications: (i) for pneumococci CAMHB is supplemented with 5% (^v/v) horse serum; (ii) for Haemophilus influenzae CAMHB is supplemented with 5% (^v/v) Fildes enrichment (BBL) (Pankuch, G. A., Hoellman, D. B., Lin, G., Bajaksouzian, S., Jacobs, M. R., and Appelbaum, P. C. 1998. Activity of HMR 3647 compared to those of five agents against Haemophilus influenzae and Moraxella catarrhalis by MIC determination and time-kill assay. Antimicrob. Agents Chemother. 42:3032-3034). Microtiter plates are incubated at 35° C. in ambient air for 20 to 24 h, then inspected using an illuminated microtiter plate reader fitted with a magnifying mirror (MIC 2000; Cooke Laboratory Products, Alexandria, Va.). Compounds of the present invention are tested against several bacteria strains comprising some Acinetobacter baumannii, Enterococcus faecalis, Enterococcus faecitan, Escherichia coli, Haemophilus influenzae, Klebsiella pneumoniae, Pseudomonas aeruginosa, Staphylococcus aureus, Staphylococcus epidermidis and Streptococcus pneumoniae.

Staphylococcus aureus = experiment: Anti-microbial activity assay, MIC by broth microdilution; settings: Staphylococcus aureus; strain ATCC29213; read-out: MIC Staphylococcus aureus ATCC29213
Protocol: as §1, §2

Escherichia coli = experiment: as above; settings: Escherichia coli; strain UB1005; read-out: MIC Escherichia coli UB1005
Protocol: as §1, §2

[2] = system: Staphylococcus epidermidis; experiment: as above; settings: Staphylococcus epidermidis; strain ATCC14990
Protocol: as §1, §2

[3] = system: Staphylococcus aureus and/or Staphylococcus epidermidis; experiment: MIC summary statement, staphylococci; settings: generally, for Staphylococcus aureus and/or Staphylococcus epidermidis
Protocol: as §1, §2

Streptococcus pneumoniae = experiment: Anti-microbial activity assay, MIC by broth microdilution (CAMHB with 5% horse serum); settings: Streptococcus pneumoniae; strain ATCC49619; CAMHB with 5% horse serum; read-out: MIC Streptococcus pneumoniae ATCC49619
Protocol: as §1, §2

[4] = system: Staphylococcus aureus and/or Staphylococcus epidermidis and/or Streptococcus pneumoniae and/or Escherichia coli; experiment: MIC summary statement, staphylococci, pneumococci and E. coli; settings: generally, for S. aureus and/or S. epidermidis and/or S. pneumoniae and/or E. coli; in most case of less than 2 mg/L
Protocol: as §1, §2

SMILES: COc1ccc2ncc(SCCN3CCC(NC(=O)c4cc5c(cc4Cl)SCC(=O)N5)CC3)nc2c1 [Example 37, 7-chloro-3-oxo-3,4-dihydro-2H-benzo[1,4]thiazine-6-carboxylic acid {1-[2-(7-methoxy-quinoxalin-2-ylsulfanyl)-ethyl]-piperidin-4-yl}-amide]
- MIC [1]: ≤ 2 µg/mL
- MIC (Staphylococcus aureus): ≤ 2 µg/mL
- MIC (Escherichia coli): ≤ 2 µg/mL
- MIC [2]: ≤ 2 µg/mL
- MIC [3]: ≤ 2 µg/mL
- MIC (Streptococcus pneumoniae): ≤ 2 µg/mL
- MIC [4]: ≤ 4 µg/mL

SMILES: COc1ccc2ncc(SCCN3CCC(NC(=O)c4ccc5c(c4)NC(=O)CS5)CC3)cc2c1 [Example 53, 3-oxo-3,4-dihydro-2H-benzo[1,4]thiazine-6-carboxylic acid {1-[2-(6-methoxy-quinolin-3-ylsulfanyl)-ethyl]-piperidin-4-yl}-amide]
- MIC [1]: ≤ 2 µg/mL
- MIC (Staphylococcus aureus): ≤ 2 µg/mL
- MIC (Escherichia coli): 4 µg/mL (≈ 7.86 µM)
- MIC [2]: ≤ 2 µg/mL
- MIC [3]: ≤ 2 µg/mL
- MIC (Streptococcus pneumoniae): ≤ 2 µg/mL
- MIC [4]: ≤ 4 µg/mL

SMILES: COc1ccc2ncc(SCCN3CCC(NCc4cc5c(cc4Cl)SCC(=O)N5)CC3)nc2c1 [Example 48, 7-chloro-6-({1-[2-(7-methoxy-quinoxalin-2-ylsulfanyl)-ethyl]-piperidin-4-ylamino}-methyl)-4H-benzo[1,4]thiazin-3-one]
- MIC [1]: ≤ 2 µg/mL
- MIC (Staphylococcus aureus): ≤ 2 µg/mL
- MIC (Escherichia coli): ≤ 2 µg/mL
- MIC [2]: ≤ 2 µg/mL
- MIC [3]: ≤ 2 µg/mL
- MIC (Streptococcus pneumoniae): ≤ 2 µg/mL
- MIC [4]: ≤ 4 µg/mL

SMILES: COc1ccc2ncc(SCCN3CCC(NC(=O)c4cc5c(cc4Cl)SCC(=O)N5)CC3)cc2c1 [Example 54, 7-chloro-3-oxo-3,4-dihydro-2H-benzo[1,4]thiazine-6-carboxylic acid {1-[2-(6-methoxy-quinolin-3-ylsulfanyl)-ethyl]-piperidin-4-yl}-amide]
- MIC (Staphylococcus aureus): ≤ 2 µg/mL
- MIC (Escherichia coli): 4 µg/mL (≈ 7.36 µM)
- MIC [2]: ≤ 2 µg/mL
- MIC [3]: ≤ 2 µg/mL
- MIC (Streptococcus pneumoniae): 4 µg/mL (≈ 7.36 µM)
- MIC [4]: ≤ 4 µg/mL

SMILES: COc1ccc2ncc(SCCN3CCC(NC(=O)c4ccc5c(c4)NC(=O)CO5)CC3)nc2c1 [Example 36, 3-oxo-3,4-dihydro-2H-benzo[1,4]oxazine-6-carboxylic acid {1-[2-(7-methoxy-quinoxalin-2-ylsulfanyl)-ethyl]-piperidin-4-yl}-amide]
- MIC [1]: ≤ 2 µg/mL
- MIC (Staphylococcus aureus): ≤ 2 µg/mL
- MIC (Escherichia coli): 4 µg/mL (≈ 8.1 µM)
- MIC [2]: ≤ 2 µg/mL
- MIC [3]: ≤ 2 µg/mL
- MIC (Streptococcus pneumoniae): ≤ 2 µg/mL
- MIC [4]: ≤ 4 µg/mL

SMILES: CCN(Cc1ccc2c(c1)OCCO2)C1CCN(CCSc2cnc3ccc(OC)cc3n2)CC1 [Example 47, (2,3-dihydro-benzo[1,4]dioxin-6-ylmethyl)-ethyl-{1-[2-(7-methoxy-quinoxalin-2-ylsulfanyl)-ethyl]-piperidin-4-yl}-amine]
- MIC [1]: ≤ 2 µg/mL
- MIC (Staphylococcus aureus): ≤ 2 µg/mL
- MIC (Escherichia coli): 32 µg/mL (≈ 64.7 µM)
- MIC [2]: ≤ 2 µg/mL
- MIC [3]: ≤ 2 µg/mL
- MIC (Streptococcus pneumoniae): ≤ 2 µg/mL

SMILES: COc1ccc2ncc(SCCN3CCC(NC(=O)c4cc5c(cc4Cl)SCCN5)CC3)nc2c1 [Example 44, 7-chloro-3,4-dihydro-2H-benzo[1,4]thiazine-6-carboxylic acid {1-[2-(7-methoxy-quinoxalin-2-ylsulfanyl)-ethyl]-piperidin-4-yl}-amide]
- MIC (Staphylococcus aureus): ≤ 2 µg/mL
- MIC (Escherichia coli): 4 µg/mL (≈ 7.55 µM)
- MIC [2]: ≤ 2 µg/mL
- MIC [3]: ≤ 2 µg/mL
- MIC (Streptococcus pneumoniae): 4 µg/mL (≈ 7.55 µM)
- MIC [4]: ≤ 4 µg/mL

SMILES: COc1ccc2ncc(OCCN3CCC(NC(=O)c4cc(-c5cccs5)on4)CC3)nc2c1 [Example 5, 5-thiophen-2-yl-isoxazole-3-carboxylic acid {1-[2-(7-methoxy-quinoxalin-2-yloxy)-ethyl]-piperidin-4-yl}-amide]
- MIC [1]: ≤ 2 µg/mL
- MIC (Staphylococcus aureus): ≤ 2 µg/mL
- MIC (Escherichia coli): > 32 µg/mL
- MIC [2]: ≤ 2 µg/mL
- MIC [3]: ≤ 2 µg/mL
- MIC (Streptococcus pneumoniae): ≤ 2 µg/mL

SMILES: COc1ccc2ncc(SCCN3CCC(NCc4cc(-c5cccs5)on4)CC3)nc2c1 [Example 42, {1-[2-(7-methoxy-quinoxalin-2-ylsulfanyl)-ethyl]-piperidin-4-yl}-(5-thiophen-2-yl-isoxazol-3-ylmethyl)-amine]
- MIC [1]: ≤ 2 µg/mL
- MIC (Staphylococcus aureus): ≤ 2 µg/mL
- MIC (Escherichia coli): 8 µg/mL (≈ 16.6 µM)
- MIC [2]: ≤ 2 µg/mL
- MIC [3]: ≤ 2 µg/mL
- MIC (Streptococcus pneumoniae): ≤ 2 µg/mL

SMILES: COc1ccc2ncc(OCCCN3CCC(CNCc4ccc5c(n4)NC(=O)CO5)CC3)nc2c1 [Example 9, 6-[({1-[3-(7-methoxy-quinoxalin-2-yloxy)-propyl]-piperidin-4-ylmethyl}-amino)-methyl]-4H-pyrido[3,2-b][1,4]oxazin-3-one]
- MIC [1]: ≤ 2 µg/mL
- MIC (Staphylococcus aureus): ≤ 2 µg/mL
- MIC (Escherichia coli): 4 µg/mL (≈ 8.12 µM)
- MIC [2]: 4 µg/mL (≈ 8.12 µM)
- MIC [3]: ≤ 2 µg/mL
- MIC (Streptococcus pneumoniae): ≤ 2 µg/mL
- MIC [4]: ≤ 4 µg/mL

SMILES: COc1ccc2ncc(SCCN3CCC(NCc4ccc5c(c4)OCCO5)CC3)nc2c1 [Example 41, (2,3-dihydro-benzo[1,4]dioxin-6-ylmethyl)-{1-[2-(7-methoxy-quinoxalin-2-ylsulfanyl)-ethyl]-piperidin-4-yl}-amine]
- MIC [1]: ≤ 2 µg/mL
- MIC (Staphylococcus aureus): ≤ 2 µg/mL
- MIC (Escherichia coli): 8 µg/mL (≈ 17.1 µM)
- MIC [2]: ≤ 2 µg/mL
- MIC [3]: ≤ 2 µg/mL
- MIC (Streptococcus pneumoniae): ≤ 2 µg/mL

SMILES: COc1ccc2ncc(SCCN3CCC(NCc4cc5c(cc4Cl)SCCN5)CC3)nc2c1 [Example 49, (7-chloro-3,4-dihydro-2H-benzo[1,4]thiazin-6-ylmethyl)-{1-[2-(7-methoxy-quinoxalin-2-ylsulfanyl)-ethyl]-piperidin-4-yl}-amine]
- MIC [1]: ≤ 2 µg/mL
- MIC (Staphylococcus aureus): ≤ 2 µg/mL
- MIC (Escherichia coli): 4 µg/mL (≈ 7.75 µM)
- MIC [2]: ≤ 2 µg/mL
- MIC [3]: ≤ 2 µg/mL
- MIC (Streptococcus pneumoniae): ≤ 2 µg/mL
- MIC [4]: ≤ 4 µg/mL

SMILES: COc1ccc2ncc(SCCN3CCC(NC(=O)c4nc5c(cc4Cl)SCC(=O)N5)CC3)nc2c1 [Example 51, 7-chloro-3-oxo-3,4-dihydro-2H-pyrido[3,2-b][1,4]thiazine-6-carboxylic acid {1-[2-(7-methoxy-quinoxalin-2-ylsulfanyl)-ethyl]-piperidin-4-yl}-amide]
- MIC (Staphylococcus aureus): ≤ 2 µg/mL
- MIC (Escherichia coli): 4 µg/mL (≈ 7.34 µM)
- MIC [2]: ≤ 2 µg/mL
- MIC [3]: ≤ 2 µg/mL
- MIC (Streptococcus pneumoniae): 4 µg/mL (≈ 7.34 µM)
- MIC [4]: ≤ 4 µg/mL

SMILES: COc1ccc2ncc(SCCN3CCC(NC(=O)c4ccc5c(n4)NC(=O)CS5)CC3)nc2c1 [Example 50, 3-oxo-3,4-dihydro-2H-pyrido[3,2-b][1,4]thiazine-6-carboxylic acid {1-[2-(7-methoxy-quinoxalin-2-ylsulfanyl)-ethyl]-piperidin-4-yl}-amide]
- MIC [1]: ≤ 2 µg/mL
- MIC (Staphylococcus aureus): ≤ 2 µg/mL
- MIC (Escherichia coli): 4 µg/mL (≈ 7.83 µM)
- MIC [2]: ≤ 2 µg/mL
- MIC [3]: ≤ 2 µg/mL
- MIC (Streptococcus pneumoniae): ≤ 2 µg/mL
- MIC [4]: ≤ 4 µg/mL

SMILES: COc1ccc2ncc(SCCN3CCC(NCc4ccc5c(n4)NC(=O)CO5)CC3)nc2c1 [Example 45, 6-({1-[2-(7-methoxy-quinoxalin-2-ylsulfanyl)-ethyl]-piperidin-4-ylamino}-methyl)-4H-pyrido[3,2-b][1,4]oxazin-3-one]
- MIC [1]: ≤ 2 µg/mL
- MIC (Staphylococcus aureus): ≤ 2 µg/mL
- MIC (Escherichia coli): ≤ 2 µg/mL
- MIC [2]: ≤ 2 µg/mL
- MIC [3]: ≤ 2 µg/mL
- MIC (Streptococcus pneumoniae): ≤ 2 µg/mL
- MIC [4]: ≤ 4 µg/mL

SMILES: COc1ccc2ncc(SCCN3CCC(NC(=O)c4ccc5c(n4)NC(=O)CS5)CC3)cc2c1 [Example 55, 3-oxo-3,4-dihydro-2H-pyrido[3,2-b][1,4]thiazine-6-carboxylic acid {1-[2-(6-methoxy-quinolin-3-ylsulfanyl)-ethyl]-piperidin-4-yl}-amide]
- MIC [1]: ≤ 2 µg/mL
- MIC (Staphylococcus aureus): ≤ 2 µg/mL
- MIC (Escherichia coli): 16 µg/mL (≈ 31.4 µM)
- MIC [2]: ≤ 2 µg/mL
- MIC [3]: ≤ 2 µg/mL
- MIC (Streptococcus pneumoniae): ≤ 2 µg/mL

SMILES: COc1ccc2ncc(SCCN3CCC(NCc4ccc5c(c4)NC(=O)CS5)CC3)nc2c1 [Example 46, 6-({1-[2-(7-methoxy-quinoxalin-2-ylsulfanyl)-ethyl]-piperidin-4-ylamino}-methyl)-4H-benzo[1,4]thiazin-3-one]
- MIC [1]: ≤ 2 µg/mL
- MIC (Staphylococcus aureus): ≤ 2 µg/mL
- MIC (Escherichia coli): ≤ 2 µg/mL
- MIC [2]: ≤ 2 µg/mL
- MIC [3]: ≤ 2 µg/mL
- MIC (Streptococcus pneumoniae): ≤ 2 µg/mL
- MIC [4]: ≤ 4 µg/mL
